Source: PubChem BioAssay AID602211 (Sanford-Burnham Center for Chemical Genomics, 2012)
Active and inactive are the calls of the source.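 Rule for the calls: active = mean IC50 at or below 10 µM; inactive = the rest.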

System: H9c2 cardiomyocytes, H2O2 protection, ATPLite viability, 2 h
Assay: protection of H9c2 cardiomyocytes from H2O2 death, dose response, cell-based, ATPLite luminescence, set 2 (AID 602211);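 note: potency is for protection so actives keep ATP signal up against peroxide killing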

Row | Structure (SMILES) | IC50
1 | COc1cc(C(=O)Nc2ccc(NC(=O)c3ccco3)nc2)cc(OC)c1OC | 25.7 µM (inactive)
2 | CCOCCn1ccc2c(OCC(=O)Nc3cc(OC)ccc3OC)cccc2c1=O | 5.23 µM
3 | COc1ccc(-n2c(/C=C/c3ccc(O)cc3)nc3ccccc3c2=O)cc1 | 6.21 µM
4 | COc1ccc(-c2cc(NC(C)=O)c3ncc(-c4cccc(C(C)=O)c4)n3c2)cc1OC | 7.18 µM
5 | O=C(Nc1ccc2nc(N3CCOCC3)sc2c1)c1cc2ccccc2o1 | 4.75 µM
6 | Cc1nc(SCC(=O)N2CCN(c3ccccc3)CC2)c2oc3ccccc3c2n1 | 3.43 µM
7 | COc1cc(/C=N/NC(=O)NC23CC4CC(CC(C4)C2)C3)ccc1OCC(N)=O | 2.84 µM
8 | COc1cc(/C=N/NC(=O)c2ccccc2)ccc1OS(=O)(=O)c1ccccc1 | 6.29 µM
9 | COc1ccc2[nH]c(=O)c(CN(CC3CCCO3)S(=O)(=O)c3ccccc3F)cc2c1 (stereo not given) | 4.52 µM
10 | COc1ccc(CCNC(=O)c2cc3c(C)nccc3[nH]c2=O)cc1OC | 7.47 µM
11 | CC(=O)Nc1cccc(-c2cc(NC(C)=O)c3ncc(-c4cccc(C(C)=O)c4)n3c2)c1 | 38.4 µM (inactive)
12 | NC(=O)COc1ccc2oc(=O)cc(-c3cc4ccccc4o3)c2c1 | 9.93 µM
13 | Cc1cc(C)c(C)c(S(=O)(=O)N2CCN(C(=O)c3cc(=O)[nH]c4ccccc34)CC2)c1C | 0.998 µM
14 | CC12C=CC(=O)CC1CCC1C2CCC2(C)C(O)C(O)CC12 (stereo not given) | 2.62 µM
15 | O=C1c2ccccc2C(=O)N1CCCCSc1nc2ccccc2c(=O)n1CCCN1CCOCC1 | 8.49 µM
16 | COc1cc(-c2cc(C(=O)OCC(=O)NC3CC3)c3ccccc3n2)cc(OC)c1OC | 3.98 µM
17 | Cc1ccccc1N(C(=O)c1snc(C(N)=O)c1N)C(C(=O)NCc1ccccc1)c1ccc(O)cc1 (stereo not given) | 6.3 µM
18 | Cc1[nH]c2ccccc2c1/C=N/NC(=O)c1cc(-c2ccccc2)n[nH]1 | 2.89 µM
19 | COCc1c(C(=O)Nc2ccc3nc(N4CCOCC4)sc3c2)oc2ccccc12 | > 79 µM (inactive)
20 | COc1ccccc1OCC(=O)N/N=C/c1cccc2cccnc12 | 14.1 µM (inactive)
21 | COCCn1cnc2c(c1=O)c1nc3ccccc3nc1n2/N=C/c1cccc(OC)c1 | 13.6 µM (inactive)
22 | CC(=O)Nc1cc(-c2ccccc2)cn2c(-c3cccc(C(C)=O)c3)cnc12 | 8.67 µM
23 | O=c1c2ccccc2nc2c3ccccc3c(NCCO)nn12 | 20.3 µM (inactive)
24 | NS(=O)(=O)c1ccc(CCNC(=O)c2ccc(C#CC3(O)CCCCC3)cc2)cc1 | > 79 µM (inactive)

Row | Structure (SMILES) | IC50
25 | O=C(N/N=C/c1ccncc1)c1ccc(COc2cccc3cccnc23)cc1 | 25.3 µM (inactive)
26 | COc1ccc(C(=O)COC(=O)C(CCCCN2C(=O)C3C4C=CC(C4)C3C2=O)N2C(=O)C3C4C=CC(C4)C3C2=O)cc1 (stereo not given) | 4.84 µM
27 | O=C(CNC(=O)c1[nH]cnc1C(=O)NC(c1ccccc1)c1ccccc1)OCc1ccccc1 | 10.1 µM (inactive)
28 | COc1ccc(/C=C/C(=O)c2ccccc2O)cc1CN1CCOCC1 | 7.14 µM
29 | CC(C)(C)OC(=O)N1CCC[C@H]1c1nnc(SCC(=O)Nc2ccc(Br)cc2)o1 | 5.87 µM
30 | COCCN1Cc2cccc(C(=O)Nc3cccc(-c4nc5ccccc5[nH]4)c3)c2C1=O | 3.91 µM
31 | O=C(CN1CCCCC1)Nc1nc(-c2ccc(F)c(F)c2)cs1 | > 79 µM (inactive)
32 | COc1cc(C(=O)N/N=C/c2ccc(OC(=O)c3ccccc3Cl)cc2)ccc1O | > 79 µM (inactive)
33 | N#Cc1cnn2cc(-c3ncc(C(F)(F)F)cc3Cl)cnc12 | 29.9 µM (inactive)
34 | Cc1ccc(C(C(=O)NCc2ccccc2)N(Cc2ccco2)C(=O)c2snc(C(N)=O)c2N)o1 (stereo not given) | 1.8 µM
35 | COc1cc(OC)c(-c2nn3c(-c4ccco4)nnc3s2)cc1OC | 4.56 µM
36 | COc1ccc(COc2cc(-c3cccc(OC)c3)nc3ccc(NC(=O)c4cccnc4)cc23)cc1 | 2.36 µM
37 | COc1cc(/C=N\NC(=O)c2cccnc2)ccc1OC(=O)c1ccccc1Cl | 30 µM (inactive)
38 | COc1cc(-c2cc(NC(C)=O)c3ncc(-c4ccccc4)n3c2)cc(OC)c1OC | 6.75 µM
39 | CCc1nc(N2CCN(C(=O)c3ccco3)CC2)c2oc3ccccc3c2n1 | > 79 µM (inactive)
40 | CC(=O)Nc1cc(-c2cccc(NS(C)(=O)=O)c2)cn2c(-c3cccc(C(C)=O)c3)cnc12 | 15 µM (inactive)
41 | O=C(NCCc1ccccc1Cl)c1ccc2nc3ccccc3c(=O)n2c1 | 7.16 µM
42 | NS(=O)(=O)c1ccc(CCNc2ccn3nc(-c4ccc(OCCN5CCOCC5)cc4)cc3n2)cc1 | 7.72 µM
43 | COc1cc(-c2cc(C(=O)NCc3ccco3)c3ccccc3n2)cc(OC)c1OC | 13.5 µM (inactive)
44 | COc1ccccc1OCC(=O)Nc1cccc(-c2nnc(-c3ccco3)o2)c1 | > 79 µM (inactive)
45 | CCC(C)N1C(=O)S/C(=C/c2ccc3c(c2)n(C)c(=O)n3C)C1=O (stereo not given) | > 79 µM (inactive)
46 | COc1cc(-c2cc3nc(NCCOc4ccccc4)ccn3n2)cc(OC)c1OC | 7.16 µM
47 | CCn1c(=O)cc(OCC(=O)Nc2ccccc2C#N)c2ccccc21 | 11.9 µM (inactive)
48 | COCCn1ccc2c(OCC(=O)Nc3ccccc3OC)cccc2c1=O | > 79 µM (inactive)

Row | Structure (SMILES) | IC50
49 | CC(=O)Nc1cc(-c2ccc(C(=O)NC3CC3)cc2)cn2c(-c3cccc(C(C)=O)c3)cnc12 | 9.83 µM
50 | O=C(Nc1ccc(C(=O)N2CCOCC2)cc1)c1cnn2c(C(F)F)cc(-c3ccccc3)nc12 | 2.8 µM
51 | CC(=O)Nc1cccc(-c2cc(NC=O)c3ncc(-c4cccc(C(C)=O)c4)n3c2)c1 | 22.1 µM (inactive)
52 | COc1cc(NC(=O)c2ccco2)c(C(=O)OCC(=O)c2c[nH]c3ccccc23)cc1OC | > 79 µM (inactive)
53 | CC1Cc2ccccc2N1C(=O)c1cc2c(=O)n3ccccc3nc2n1C (stereo not given) | > 79 µM (inactive)
54 | CCN(C[C@H]1N[C@@](Cc2ccccc2)(C(=O)OC)[C@H]2C(=O)N(C)C(=O)[C@@H]12)S(=O)(=O)c1ccc(OC)cc1 | 21.1 µM (inactive)
55 | CCCCNC(=O)c1cn(-c2ccc(OCC)cc2)c(=O)c2cc(OC)c(OC)cc12 | > 79 µM (inactive)
56 | COC(=O)c1cc(NC(=O)Nc2cc(OC)ccc2OC)cc(C(=O)OC)c1 | 22.3 µM (inactive)
57 | O=C1OCCN1C(=O)[C@H]1[C@H](c2ccc([N+](=O)[O-])cc2)C(c2ccc(F)cc2)=NN1c1ccc(Br)cc1 | 3.09 µM
58 | COc1cc(C(=O)Nc2nc(-c3cccs3)cs2)cc(OC)c1OC | 1.78 µM
59 | Cc1ccc(-n2cc(-c3ccccc3)c3c(N4CCOCC4)ncnc32)cc1 | 5.98 µM
60 | OC1CCN(c2c3c(nc4cc(-c5cccc(F)c5)nn24)CCCC3)CC1 | 6.02 µM
61 | O=C(NC1CCCCC1)C(c1ccc2ncccc2c1)N(Cc1ccco1)C(=O)c1ccc2c(c1)OCCO2 (stereo not given) | 10.8 µM (inactive)
62 | COc1ccc(NC(=O)c2cc(-c3ccccn3)nc3ccccc23)cc1S(=O)(=O)N(C)C | 2.46 µM
63 | CC(C)(C)OC(=O)N1CCC(NC(=O)c2nc[nH]c2C(=O)NCC(=O)OCc2ccccc2)CC1 | 1.08 µM
64 | CCOc1ccc2nc(NC(=O)CN3CCC(n4nnc5cc(F)ccc54)CC3)sc2c1 | 2.37 µM
65 | COc1ccc(OCC(O)Cn2c(Br)nc3c2c(=O)[nH]c(=O)n3C)cc1 (stereo not given) | 15.9 µM (inactive)
66 | COc1cccc(OC)c1C(=O)Nc1cc(C)nn1-c1nc2ccccc2[nH]1 | 4.1 µM
67 | COc1ccc(C=NNc2nc3c([nH]2)c(=O)n(C)c(=O)n3C)cc1 | 5.8 µM
68 | Cc1ccc(NC(=O)c2cc(=O)c3ccccc3o2)cc1S(=O)(=O)N1CCOCC1 | 5.15 µM
69 | Cc1ccc(NC(=O)c2cc(-c3cccs3)nc3ccccc23)nc1 | 8.28 µM
70 | O=C(O)c1ccc2c(c1)S(=O)(=O)c1cc(N3CCN(c4cnccn4)CC3)ccc1C2=O | > 79 µM (inactive)
71 | COc1ccc(-c2cc(C(F)(F)F)n3nc(C(=O)N4CCN(C(=O)c5ccco5)CC4)cc3n2)cc1 | 9.56 µM
72 | CC(C)(C)NC(=O)COC(=O)c1c2c(nc3ccccc13)CCC2 | 14.6 µM (inactive)

Row | Structure (SMILES) | IC50
73 | CC1CN(c2nn3c(=O)c4ccccc4nc3c3ccccc23)CC(C)O1 (stereo not given) | 32.5 µM (inactive)
74 | CC(C)CCN(C(=O)CNC(=O)c1ccco1)C(C(=O)NC1CCCCC1)c1ccco1 (stereo not given) | 13.4 µM (inactive)
75 | Cc1nn(C)cc1C(C(=O)NC1CCCCC1)N(C(=O)Cc1cccs1)c1ccc(Cl)cc1 (stereo not given) | 8.18 µM
76 | COc1cc(/C=N/NC(=O)c2cccnc2)ccc1OS(=O)(=O)c1cc(C)ccc1C | > 79 µM (inactive)
77 | CCOc1ccc2ccccc2c1C(=O)N[C@@H]1C(=O)N2[C@@H]1SC(C)(C)[C@@H]2C(=O)O | 24.4 µM (inactive)
78 | COc1cccc(CN(C)C(=O)C(Cc2ccccc2)NC(=O)c2ccccc2)c1OC (stereo not given) | 6.8 µM
79 | O=C/C(=C\Nc1ccccn1)c1nc2cc(Cl)ccc2o1 | 9.92 µM
80 | CCOC(=O)C1CCN(c2cc3c(cc2NC(=O)c2ccc(OC)c(OC)c2)n(C)c(=O)n3C)CC1 | 1.22 µM
81 | COc1cccc(C(=O)CSc2nnc(-c3cc(OC)c(OC)c(OC)c3)o2)c1 | > 79 µM (inactive)
82 | CCOC(=O)c1cc(-c2nnc(-c3cc(OC)c(OC)c(OC)c3)o2)c(C)nc1C | 2.25 µM
83 | CC1(c2ccccc2)NC(=O)N(CC(=O)Nc2cccc(/C=C/c3ccccn3)c2)C1=O (stereo not given) | 9.76 µM
84 | CC(C)(C)OC(=O)C[C@@H]1C/C=C\C[C@@H](CC(=O)N[C@@H](CO)Cc2ccccc2)C(=O)NC[C@@H](c2ccccc2)OC1=O | 12.9 µM (inactive)
85 | CC(=O)Nc1cc(C)nn1-c1nc2ccccc2s1 | 14.6 µM (inactive)
86 | CC(=O)c1cccc(-c2cnc3c(NC=O)cc(-c4cccc(C(=O)N(C)C)c4)cn23)c1 | 14.9 µM (inactive)
87 | COc1cc(C(=O)N/N=C/c2ccc(OC(=O)c3ccccc3)c(OC)c2)ccc1O | 6.65 µM
88 | COC(=O)c1[nH]c2cc(OC)c(OC)cc2c1/C=N/Nc1ccccc1 | 6.78 µM
89 | O=C(Nc1ccccc1)c1nc[nH]c1C(=O)NCCCCNC(=O)c1[nH]cnc1C(=O)Nc1ccccc1 | 2.04 µM
90 | COc1cc(-c2cc(NC=O)c3ncc(-c4ccc(C(C)=O)cc4)n3c2)ccc1O | 3.61 µM
91 | C/C(=N\Nc1nnc2c3ccccc3n(C)c2n1)c1ccc(C)o1 | 10.4 µM (inactive)
92 | NC(=O)c1nsc(C(=O)N(c2ccccc2F)C(C(=O)NCc2ccccc2)c2ccc(O)cc2)c1N (stereo not given) | 0.75 µM
93 | Cc1ccc2cc3c(NC(=O)c4cccnc4)nn(C)c3nc2c1 | 15.9 µM (inactive)
94 | COc1ccc(-c2csc(NC(=O)c3cccc(N4C(=O)CCC4=O)c3)n2)cc1OC | 5 µM
95 | CCOC(=O)C1CCN(c2cc3c(cc2NC(=O)c2ccc(F)cc2)n(C)c(=O)n3C)CC1 | 25.8 µM (inactive)
